According to patent publication US20260035452A1 (THE UNIVERSITY OF BIRMINGHAM, priority 2022, published 2026):
No end group written: not given here.

System: NIH-3T3 mouse embryonic fibroblast cells
Assay: IL-6 secretion by NIH-3T3 fibroblasts (Elisa)
Format: cell-based
Details: NIH-3T3 cells, 50 ng/ml, vs control / IL-17 group
Method: FIG. 2: NIH-3T3 mouse embryonic fibroblast cells were treated with IL-17 vehicle (Ctrl), IL-17 (50 ng/ml) alone (IL-17) or peptide (FM-0410) (50 ng/ml) and supernatants were assayed by Elisa for IL-6. Data were expressed as pg/ml and presented as means±S.D. of three separate independent experiments. Statistical analysis was conducted by one-way ANOVA followed by Bonferroni's for multiple comparisons. ^##P≤0.01, ^###P≤0.005 vs Ctrl group; *P≤0.05 vs IL-17 group. In order to assess the biological activity of synthesized peptide, we carried out in vitro studies using NIH-3T3 mouse embryonic fibroblast cells. […] With this in vitro system we measured IL-17 activity by its ability to induce IL-6 secretion by NIH-3T3 mouse embryonic fibroblast cells. Methods: The levels of IL-6 in the cellular and air pouch inflammatory supernatants at 24 h were measured using commercially available enzyme-linked immunosorbent assay kit (ELISA kit, R&D System, Milan, Italy) according to the manufacturer instructions. […] The addition of 100 μl of the substrate and stop solution represented the last steps before the reading of absorbance (measured at 450 nm) on a microplate reader. Antigen levels in the samples were determined using a standard curve and expressed as pg/ml. […]

Ac-LEKILVSVGATAVTPIVHHVAC [FM-0410]
IL-6 release: significant, and more abundant, release of IL-6 compared to IL-17-treated group
